The values below come from publication PMC5931690, “SmSP2: A serine protease secreted by the blood fluke pathogen Schistosoma mansoni with anti-hemostatic properties” (PLoS Neglected Tropical Diseases, 2018).

The experiment has as its target T1, rSmSP2 (SmSP2, serine protease 2; recombinant protease domain) (Schistosoma mansoni, UniProt V5UMR3).
T1 construct: gene SP2; about 28 kDa on SDS-PAGE, active form
Put plainly: fluorogenic kinetic assay, residual P-F-R-AMC hydrolysis. The format is biochemical. The source says:
fluorogenic kinetic assay, residual P-F-R-AMC hydrolysis on rSmSP2 (SmSP2, serine protease 2; recombinant protease domain)

The structures appear in SMILES notation. *1 amine or outer side, *2 acyl side, *3 side chain or, on linkers, in order; H or OH if unused. Where a SMILES comes first, the peptide text is derived from it. CO = O=C([*:1])[*:2]

T1 sequence (V5UMR3 entry or part of it): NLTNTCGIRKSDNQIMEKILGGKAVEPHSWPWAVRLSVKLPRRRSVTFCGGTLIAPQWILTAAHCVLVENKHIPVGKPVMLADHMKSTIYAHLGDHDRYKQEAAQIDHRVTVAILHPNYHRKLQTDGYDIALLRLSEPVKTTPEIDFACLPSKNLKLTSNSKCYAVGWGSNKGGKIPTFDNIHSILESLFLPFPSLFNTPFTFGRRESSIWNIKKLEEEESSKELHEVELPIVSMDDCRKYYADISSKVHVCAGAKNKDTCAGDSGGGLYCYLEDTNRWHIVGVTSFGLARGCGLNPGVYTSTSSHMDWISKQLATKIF

`NCCc1ccc(S(=O)(=O)F)cc1` [Pefabloc SC]: the percent inhibition (1000 µM, 50 μM P-F-R-AMC, 0.1 M Tris-HCl pH 8.0, 37 °C, 10 min preincubation, covalent) was 100%. Turning to `CC(C)[C@H](NC(=O)[C@H](CCCNC(=N)N)NC(=O)N[C@@H](Cc1ccccc1)C(=O)O)C(=O)N[C@H](C=O)CCCNC(=N)N` [Antipain] ({Phe-CO}-Arg-Val-Arg-aldehyde), the inhibition at 20 µM (read-out: Inhibition (%)^c) turned out to be 100%.

Turning to `O=c1oc(Cl)c(Cl)c2ccccc12`, the inhibition at 100 µM (read-out: Inhibition (%)^c) stood at 71.4 ± 3.3%. `CC(=O)N[C@@H](CC(C)C)C(=O)N[C@@H](CC(C)C)C(=O)N[C@H](C=O)CCCNC(=N)N` [Leupeptin, N-acetyl-L-leucyl-L-leucyl-L-argininal]: the inhibition at 20 µM (read-out: Inhibition (%)^c) is 100%. As to `N=C(N)c1ccccc1` [Benzamidine], where the note is “read-out: Concentration”, the inhibition at 1000 µM turned out to be 100%.
